These results are taken from patent US20240368122A1, “JAK2 INHIBITORS AND METHODS OF USE THEREOF” (RELAY THERAPEUTICS, INC., priority 2021, published 2024).

Assay [1] has as its system TF1 JAK2 V617F STAT5 reporter. The assay can be described thus: Cellular TF1 STAT5 assay (luciferase reporter), JAK2 V617F. It is filed as cell-based. The settings on record: read-out: Cell PD TF1 V617F STAT5 (IC50). The method, boiled down: (§1)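 TF1 erythroleukemia cells expressing V617F JAK2 with a STAT3 or STAT5 luciferase reporter were seeded at 10,000 cells/well onto compound (10-point, 1:3 dilutions; 10 mM top stock at 1000×) and incubated 18-20 h at 37 °C, 5% CO2. Luminescence was read after ONE-glo addition, 10 min at room temperature.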
A general note: In a reporter assay the amount or activity of a reporter protein is the signal.

In assay [2] the test system is TF1 JAK2 V617F STAT3 reporter. The assay can be described thus: Cellular TF1 STAT3 assay (luciferase reporter), JAK2 V617F. The settings on record: read-out: Cell PD-TF1 JAK2 V617F STAT3 (IC50). The assay is classed as cell-based. The method, boiled down: as §1
For assay [3], the target named is T1, JAK2 JH2 WT (V536-D812) [W659A, W777A, F794H solubilizing mutations] (Homo sapiens, UniProt O60674, F794H/W659A/W777A).
T1 construct: **JAK2 JH2 WT (V536-D812) [W659A, W777A, F794H solubilizing mutations]; C-thrombin-avi-His6; thrombin cleavage site (C); His6 (C); purchased Biortus
T1 sequence (O60674 536-812 W659A/W777A/F794H): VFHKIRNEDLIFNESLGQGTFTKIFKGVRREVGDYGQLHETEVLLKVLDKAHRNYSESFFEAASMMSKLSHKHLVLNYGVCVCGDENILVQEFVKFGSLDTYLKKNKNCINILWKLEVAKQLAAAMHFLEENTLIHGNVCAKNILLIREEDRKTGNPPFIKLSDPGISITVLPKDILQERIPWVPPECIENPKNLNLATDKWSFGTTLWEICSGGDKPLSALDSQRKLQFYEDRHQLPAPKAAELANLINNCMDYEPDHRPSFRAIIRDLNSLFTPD
The assay can be described thus: Surface Plasmon Resonance (SPR) binding assay, JAK2 JH2 domain. In a few lines: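 Kinetics came from 1:1 fits of single-cycle runs at 20 °C: four 3-fold dilutions from 5 uM for JH1 or 500 nM for JH2, 60 s association, and 300 s or 1200 s dissociation respectively. Protein was freshly captured per compound in the presence of 10 uM stabilizer compound, with running buffer of pH 7.5 HEPES/NaCl/glycerol/DTT plus 2% DMSO.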

Where [4] appears, read: Homo sapiens, TF-1, TF1 cells, JAK2 V617F.

In general, IC50 refers to the concentration at which inhibition is half-maximal. As a reminder, the Kd is the free concentration of one partner at which half of the binding sites on the other are occupied at equilibrium, for simple one-to-one binding.

Molecules are shown by their SMILES. Like-named read-outs stand apart in the source and are kept apart here.

Turning to `CNC(=O)c1nnc(NC(=O)C2CC2)cc1Nc1cc(F)cc(-c2ccc(C(=O)N(C)Cc3cc(C#N)ccn3)nc2)c1OC` [Compound 112], the IC50 in assay [1] (TF1 JAK2 V617F) and in assay [2] (TF1 JAK2 V617F) was 50 to 500 nM in each case. In addition, the Kd in assay [3] (SPR, JAK2 JH2 domain) lay within 0.01 to 10 nM.
`CNC(=O)c1nnc(NC(=O)C2CC2)cc1Nc1cccc(-c2cnn(C3CN(Cc4cccnc4Cl)C3)c2)c1OC` [Compound 169]: the IC50 in assay [1] (TF1 JAK2 V617F) and in assay [2] (TF1 JAK2 V617F) was 50 to 500 nM throughout. Also, in assay [3] (SPR, JAK2 JH2 domain), the Kd lay within 0.01 to 10 nM.
On to `CNC(=O)c1nnc(NC(=O)C2CC2)cc1Nc1ccc(C)c(-c2cnc(C(=O)N(C)Cc3cc(S(C)(=O)=O)ccn3)c(F)c2)c1OC` [Compound 340], for which the IC50 in assay [1] (setting [4]) and in assay [2] (setting [4]) was 50 to 500 nM throughout. The Kd in assay [3] lay within 0.01 to 10 nM.
In the case of `CNC(=O)c1nnc(NC(=O)C2CC2)cc1Nc1cccc(C(=O)N[C@@H](C)C2CN(Cc3ccccn3)C2)c1OC` (single isomer, unassigned) [Compound 245], the IC50 in assay [1] (setting [4]) and in assay [2] (setting [4]) was 5000 to 100000 nM in each case. Besides, the Kd in assay [3] lay in the range of 50 to 500 nM.
Consider `CNC(=O)c1nnc(NC(=O)C2CC2)cc1Nc1cccc(-c2cnn(C3CN(Cc4cn(C)nc4C)C3)c2)c1OC` [Compound 213], for which the IC50 in assay [1] (setting [4]) and in assay [2] (setting [4]) was 500 to 5000 nM each time. Besides, in assay [3], the Kd was 0.01 to 10 nM.
With `CNC(=O)c1nnc(NC(=O)C2CC2)cc1Nc1cccc(-c2ccc(C(=O)N(C)Cc3csc(C(C)C)n3)nc2)c1OC` [Compound 199], the IC50 in assay [1] (setting [4]) and in assay [2] (setting [4]) was 50 to 500 nM throughout. Besides, the Kd in assay [3] is 0.01 to 10 nM.
`CNC(=O)c1nnc(NC(=O)C2CC2)cc1Nc1cccc(-c2cnn(C3CN(Cc4cc(Cl)ccn4)C3)c2)c1OC` [Compound 250]: the IC50 in assay [1] (setting [4]) and in assay [2] (setting [4]) was 50 to 500 nM in each case. Also, the Kd in assay [3] was in the range of 0.01 to 10 nM.
Turning to `CNC(=O)c1nnc(NC(=O)C2CC2)cc1Nc1cccc(-c2cc(C3CN(Cc4ccccn4)C3)nn2C)c1OC` [Compound 189], the IC50 in assay [1] (TF1 JAK2 V617F) and in assay [2] (TF1 JAK2 V617F) was 5000 to 100000 nM each time. The compound also gave a Kd in assay [3] (SPR, JAK2 JH2 domain) of 10 to 50 nM.
On to `CNC(=O)c1nnc(NC(=O)C2CC2)cc1Nc1cccc(-c2cnn(C3CN(Cc4cccc(C5(C#N)CC5)n4)C3)c2)c1OC` [Compound 292], for which the IC50 in assay [1] (setting [4]) and in assay [2] (setting [4]) was 50 to 500 nM in each case. For the same compound, in assay [3], the Kd was in the range of 0.01 to 10 nM.
As for `CNC(=O)c1nnc(NC(=O)C2CC2)cc1Nc1cccc(-c2ccc(C(=O)N(C)Cc3cn(C)nc3C)cc2)c1OC` [Compound 221], the IC50 in assay [1] (setting [4]) and in assay [2] (setting [4]) was 50 to 500 nM each time. Moreover, the Kd in assay [3] was in the range of 0.01 to 10 nM.
`CNC(=O)c1nnc(NC(=O)C2CC2)cc1Nc1cccc(-c2ccc(C(=O)N(C)Cc3cn(C)nc3C(F)(F)F)nn2)c1OC` [Compound 75]: the IC50 in assay [1] (TF1 JAK2 V617F) and in assay [2] (TF1 JAK2 V617F) was 500 to 5000 nM each time. The compound further had an equilibrium dissociation constant (Kd) in assay [3] (SPR, JAK2 JH2 domain) of 0.01 to 10 nM.
Turning to `CNC(=O)c1nnc(NC(=O)C2CC2)cc1Nc1cccc(-c2cnn(C3CN(Cc4cccc(C#N)n4)C3)c2)c1` [Compound 232], the IC50 in assay [1] (setting [4]) and in assay [2] (setting [4]) was 5000 to 100000 nM each time. Moreover, the Kd in assay [3] was in the range of 10 to 50 nM.
Consider `CNC(=O)c1nnc(NC(=O)C2CC2)cc1Nc1ccc(C)c(-c2cn(C3CN(Cc4cccc(C)n4)C3)nn2)c1OC` [Compound 269], for which the IC50 in assay [1] (setting [4]) and in assay [2] (setting [4]) was 500 to 5000 nM throughout. In addition, the Kd in assay [3] is 0.01 to 10 nM.
With `CNC(=O)c1nnc(NC(=O)C2CC2)cc1Nc1cccc(-c2cn(C3CN(C(C)C)C3)nc2C(C)(C)O)c1OC` [Compound 338], the IC50 lay in the range of 5000 to 100000 nM in assay [1] (setting [4]) and 500 to 5000 nM in assay [2] (setting [4]). The compound also returned an equilibrium dissociation constant (Kd) in assay [3] of 50 to 500 nM.
In the same order, the values of `C=Cc1cccc(CN2CC(n3cc(-c4cccc(Nc5cc(NC(=O)C6CC6)nnc5C(=O)NC)c4OC)cn3)C2)n1` [Compound 368] are 50 to 500 nM, 50 to 500 nM and 0.01 to 10 nM.
In the same order, the values of `CNC(=O)c1nnc(NC(=O)C2CC2)cc1Nc1cccc(-c2cn([C@@H]3CN(Cc4cccc(C#N)n4)[C@H]3C)nn2)c1OC` (racemic) [Compound 214] are 50 to 500 nM, 50 to 500 nM and 0.01 to 10 nM.
On the same counts, the results for `CNC(=O)c1nnc(NC(=O)C2CC2)cc1Nc1cccc(-c2ccc(C(=O)N(C)Cc3cnn(C(F)F)c3C)nc2)c1OC` [Compound 298] are 500 to 5000 nM, 500 to 5000 nM and 0.01 to 10 nM.
